Source: article PMC12090809 (Journal of Virology, 2025)
“Also recorded” adds a separate entry of the source.

Assays:
[1] = system: SHIV AD8-EO-infected rhesus macaques; assay: Safety of subcutaneous BNM-III-170 dosing regimens in SHIV AD8-EO-infected RMs; type: in vivo, Macaca mulatta; conditions: for Blood chemistries / Clinical signs: SHIV AD8-EO-infected RMs, one line per animal; for ALP: normal range 83–363 U/L
[2] = system: SHIV AD8-EO-infected rhesus macaques; assay: Complete blood counts and flow cytometry immunophenotyping of PBMCs in SHIV AD8-EO-infected RMs after BNM-III-170; type: in vivo, Macaca mulatta
Experimental: In addition to monitoring blood chemistries, complete blood counts (CBCs) were performed immediately prior to BNM-III-170 treatment and at several post-treatment timepoints (Fig. 4A). Significant increases in white blood cell counts (WBCs) were observed between 0 h and 24 h after the terminal dose of each treatment cycle (median WBCs: 7,550 and 12,595, respectively, P-value = 0.0391). This increase in WBCs was largely attributed to increases in neutrophils (median counts at 0 h vs. 24 h of 2,926 and 8,004, P-value = 0.0078) and, to a lesser extent, monocytes (median counts at 0 h vs 24 h after the terminal dose of 696 and 1,537, P-value = 0.0391). […] Of note, this lymphopenia was generally transient (Fig. S5).
To further investigate this observed lymphopenia, multiparameter flow cytometry was performed on PBMCs from 0 h and 24 h post-terminal dose timepoints from all treatment cycles (Fig. S6). […] While the exact cause of this non-specific lymphopenia is unknown, it may be due to depletion of lymphocytes or migration of lymphocytes to tissue; the latter explanation is more consistent with the transient nature of the lymphopenia.
A 20-parameter flow cytometric analysis was performed on fresh PBMCs and mononuclear cells (10^6 cells) derived from LN biopsies using anti-human monoclonal Abs (mAbs), which we ([6], [58][–][60]) and others, including databases maintained by the NHP Reagent Resource (MassBiologics), have shown as being cross-reactive in RMs. […] All samples were fixed with 1% paraformaldehyde and acquired within 24 h of fixation. Acquisition of data was performed on a FACSymphony A5 (BD Biosciences) driven by FACS DiVa software and analyzed with FlowJo (version 10.7; Becton, Dickinson, and Company).

[3] = system: CH058TF-infected CEM.NKr cells; type: cell-based, HIV-1; conditions: 50 μM added BNM-III-170 vs absence
Experimental: Cell surface staining was performed at 48 h post-infection. Mock-infected or HIV-1-infected CEM.NKr or primary CD4+ T cells were incubated for 45 min at 37°C with anti-Env mAbs (5 µg/mL), plasma from PWH (1:1,000 dilution), or plasma from infected RMs (1:500). When indicated, antibody/plasma incubation was done in the presence of 50 µM of BNM-III-170, or equivalent amounts of DMSO. To evaluate the capacity of plasma from SHIV-AD8-EO-infected RMs treated with BNM-III-170 to recognize HIV-1-infected cells, a 1:10 plasma dilution was used. Cells were then washed twice with PBS and stained with the appropriate Alexa Fluor 647-conjugated secondary antibody (2 µg/mL) for 20 min and the viability dye AquaVivid (Thermo Fisher Scientific) at room temperature. Cells were then washed twice with PBS and fixed in a 2% PBS-formaldehyde solution. […]
Measurement of ADCC using the FACS-based assay was performed at 48 h post-infection, as previously described. […] The percentage of ADCC was calculated with the following formula: (% of p24+/p27+ cells in Targets plus Effectors) − (% of p24+/p27+ cells in Targets plus Effectors plus Abs) / (% of p24+/p27+ cells in Targets) by gating on infected live target cells.

SHIV AD8-EO = assay: Viral infectivity / neutralization assay in TZM-bl cells with SHIV variants; conditions: virus incubated with BNM-III-170 (Fig. 2A)
Experimental: The viral neutralization assay was done as previously described ([56]). Briefly, TZM-bl target cells were seeded at a density of 1 × 10^4 cells/well in 96-well luminometer-compatible tissue culture plates (Perkin-Elmer Life Sciences, Waltham, MA) 24 h before infection. Then, 100 µL portions of recombinant viruses was incubated with the indicated amount of mAbs, plasma, BNM-III-170, or a mixture of mAbs and BNM-III-170 for 1 h at 37°C and then added to the target cells. After incubation for 48 h at 37°C, the medium was removed from each well, and the cells were lysed by the addition of 30 µL of passive lysis buffer (Promega) and three freeze-thaw cycles. An LB 941 TriStar luminometer (Berthold Technologies) was used to measure the luciferase activity in each well after the addition of 100 µL of luciferin buffer (15 mM MgSO4, 15 mM KPO4 [pH 7.8], 1 mM ATP, and 1 mM dithiothreitol) and 50 µL of 1 mM D-luciferin potassium salt (Prolume).

[4] = 36 mg/kg SQ, 2 doses, dosing interval 1 day, 36 mg/kg
[5] = 36 mg/kg SQ, 3 doses, dosing interval 3 days, 36 mg/kg
[6] = animal 14C013 at necropsy, 2 × 36 mg/kg SQ every 24 h

For `CNCc1ccc2c(c1)C[C@H](CN=C(N)N)[C@H]2NC(=O)C(=O)Nc1ccc(Cl)c(F)c1.O=C(O)C(F)(F)F.O=C(O)C(F)(F)F` [BNM-III-170], the Blood chemistries ([1]; 24 mg/kg SQ, 1 dose, 24 mg/kg) was “Transient elevation of CPK, troponin I”, the Blood chemistries [1, 4] was “Elevated AST, ALT, amylase, CPK, troponin I; also recorded: Transient elevation of ALP, CPK, troponin I” and the Clinical signs [1, 4] was “pale mucus membranes, weak femoral pulses, and dyspnea; also recorded: Animal experienced acute respiratory distress and tachycardia at 6 hr post dose #2 and was sacrificed; inconclusive path report, pale liver noted; also recorded: Enlarged liver and spleen, lesion at BNM-III-170 injection site”. The Blood chemistries [1, 5] was “Transient elevation of AST, ALT, CPK; also recorded: Elevated BUN, BUN/Cr, CPK; low potassium”, the Clinical signs [1, 5] was “mild erythema at the BNM-III-170 injection sites; also recorded: Animal reached endpoint criteria (weight loss > 25%) due to chronic diarrhea that started prior to CD4mc treatments, animal sacrificed 3 hr post dose #2” and the Blood chemistries ([1]; 36 mg/kg SQ, 3 doses, dosing interval 7 days, 36 mg/kg) was “Transient elevation of AST, ALP, TRIG, CPK; also recorded: Transient elevation of AST, ALT, ALP, CSK; also recorded: Transient elevation of Glob, ALT, ALP, GGT, AMY, CPK”. The adverse reactions ([1]; SHIV-infected RMs 14C056 and 34901, 1 × 24 mg/kg SQ) was “No adverse reactions were observed”, the “clinical signs of toxicity” value ([1]; SHIV-infected RMs, 36 mg/kg SQ doses at 7-day dosing interval) was “no clinical signs of toxicity were noted” and the ALT [1, 6] was 123 U/L. For the same molecule, the AST [1, 6] was 145 U/L, the “troponin I” value [1, 6] was 0.28 ng/mL and the amylase ([1]; animal 14C013 at necropsy, 2 × 36 mg/kg SQ every 24 h, normal range 148–316 U/L) was 421 U/L. For the same molecule, the AST ([1]; animal 14C056, 24 h after dose 3, 36 mg/kg SQ every 3 days) was 109 U/L, the “troponin I” value ([1]; animal 34901, 6 h post-dose, 1 × 24 mg/kg SQ, resolved by 5 days post-treatment) was 0.090 ng/mL and the potassium ([1]; animal 34901 at necropsy (3 h after dose 2, 36 mg/kg SQ every 3 days), 2.4 vs 2.8 at 0 h of cycle, normal range 3–5 mmol/L) was 2.4 mmol/L. The blood urea nitrogen ([1]; animal 34901 at necropsy (3 h after dose 2, 36 mg/kg SQ every 3 days), 34 at 0 h of cycle, normal range 9–27, likely due to prolonged diarrhea) was 28 mg/dL, the “ratio of blood urea nitrogen to creatinine” value ([1]; animal 34901 at necropsy (3 h after dose 2, 36 mg/kg SQ every 3 days), 37.8 at 0 h of cycle, normal range 12.5–33.3) was 35 and the “troponin I” value ([1]; animal RYj17, 6 h after dose 1 of 2 × 36 mg/kg SQ every 24 h, resolved by 24 h) was 0.049 ng/mL. For the same molecule, the ALP ([1]; animal RYj17, 24 h after dose 2 of 2 × 36 mg/kg SQ every 24 h) was 405 U/L, the ALP ([1]; animal RYj17, 16 days later (after 24 h post dose 2), 2 × 36 mg/kg SQ every 24 h) was 715 U/L and the “white blood cell counts (WBCs), median” value ([2]; 24 h after terminal dose of each treatment cycle, 0 h median 7,550, P-value = 0.0391) was 12,595. For the same molecule, the “monocytes, median counts” value ([2]; 24 h after terminal dose, 0 h median 696, P-value = 0.0391) was 1,537, the “neutrophils, median counts” value ([2]; 24 h after terminal dose, 0 h median 2,926, P-value = 0.0078) was 8,004 and the “absolute numbers of NK cells, median” value ([2]; 24 h post-terminal dose, 0 h median 191, P = 0.0078) was 48 cells per μL blood. For the same molecule, the “absolute numbers of CD4+ T cells, median” value ([2]; 24 h post-terminal dose, 0 h median 496, P = 0.0078) was 283 cells per μL blood, the “absolute numbers of CD8+ T cells, median” value ([2]; 24 h post-terminal dose, 0 h median 1,084, P = 0.0078) was 323.5 cells per μL blood and the “absolute numbers of B cells, median” value ([2]; 24 h post-terminal dose, 0 h median 1,129, P = 0.0391) was 1,080 cells per μL blood. For the same molecule, the “lymphocyte frequency in whole blood” value ([2]; 24 h post-terminal dose, 49% at 0 h, P = 0.0078) was 19.5%, the “lymphocyte numbers in whole blood” value ([2]; 24 h post-terminal dose, 3,774 at 0 h, P = 0.0078) was 2,068 and the “ADCC activity of Abs in 0 h RM plasma against infected cells” value [3] was “significantly increased”. The “binding of Abs in 0 h RM plasma to infected cells” value [3] was “significantly increased” and the “effect on SHIV AD8-EO infectivity” value (SHIV AD8-EO) was “directly decrease SHIV AD8-EO infectivity”.
